From patent publication US6531160B2, “Microcapsules with an aqueous core containing at least one water-soluble cosmetic or dermatological active principle and cosmetic or dermatological compositions containing them” (L′Oreal, priority 2000, dated 2003) come the findings set out here.

The nature of this series: Loss of active agent after storage for 2 months at 45° C. (microcapsule suspension vs control aqueous solution). The format is physicochemical. The settings on record: control aqueous solution of the active agent, same weight concentration. The method, then: The microcapsule suspension thus obtained is stored for 2 months at a temperature of 45° C. After this storage period, the loss of cytochrome C from the suspension and that of a control aqueous solution of cytochrome C having the same weight concentration of 0.25% and which has been stored under the same conditions, are measured.
The microcapsule suspension thus obtained is stored for 2 months at a temperature of 45° C. After this storage period, the loss of chlorophylline from the suspension and that of a control aqueous solution of chlorophylline having the same weight concentration of 0.1%, and which has been stored under the same conditions, are measured.
The microcapsule suspension thus obtained is stored for 2 months at a temperature of 45° C. After this storage period, the loss of ascorbic acid from the suspension and that of a control aqueous solution of ascorbic acid having the same weight concentration of 5% and also a pH of 6, and which has been stored under the same conditions, are measured.
As to `O=C1O[C@H]([C@@H](O)CO)C(O)=C1O` [ascorbic acid], the “Loss of active agent after storage for 2 months at 45° C., non-encapsulated control” value amounted to 40%.
As to chlorophylline, the “Loss of active agent after storage for 2 months at 45° C., non-encapsulated control” value was 60%.
Next, cytochrome C: 60%.
